What was measured:
[1] = test system: human keratinocytes; experiment: Cornified envelope (CE) formation, marker of terminal differentiation of keratinocytes; format: cell-based; conditions: Homo sapiens, Keratinocyte, read-out: CE Levels
Procedure: (§1) Human keratinocytes, isolated from neonatal foreskin by trypsin treatment were grown in Dulbecco Modification Eagle (DME) Hams F12 (3:1) medium/5% fetal calf serum in the presence of mitomycin C treated 3T3 mouse fibroblasts for establishing dividing keratinocyte colonies. Cells were grown under the above condition until their second passage and kept frozen for future use. Frozen second passage keratinocytes were thawed and plated into the above medium and grown for five days. On day 5, when the cells were 70-80% confluent, they were trypsinized and plated in the serum-free medium for the various experiments.
(§2) During the process of terminal differentiation in the epidermis, a 15 nm thick layer of protein, known as the cornified envelope (CE)is formed on the inner surface of the cell periphery. The CE is composed of numerous distinct proteins which have been cross-linked together by the formation of N ^ε -(-γ-glutamyl) lysine isodipeptide bonds catalyzed by the action of at least two different transglutaminases expressed in the epidermis. Transglutaminase (TG-1) is expressed in abundance in the differentiated layers of the epidermis, especially the granular layer, but is absent in the undifferentiated basal epidermis. Thus, TG-1 is a useful marker of epidermal keratinocyte differentiation with high TG-1 levels indicating a more differentiated state. An ELISA based TG-1 assay, using a TG-1 antibody, was used to assess the state of differentiation of the cultured keratinocytes in the examples that follow.
Proper skin conditioning require enhanced proliferation and differentiation of epidermal keratinocytes. The different citrate esters were tested on their effect on cornified envelope (CE) formation, a marker of terminal differentiation of keratinocytes. Citrate esters were tested at 1 mM levels in medium containing 0.15 mM Ca. Levels are expressed as % of control ±SD. The CE formation for the control was 54.48 ±31.8 cpm/μg cell protein.

[2] = test system: Transglutaminase (TG-1); experiment: Transglutaminase I levels in keratinocytes (ELISA based TG-1 assay); format: cell-based, human; conditions: 48 hour treatment
Procedure: as §1, §2
The level of TG-1 was measured as follows. […] The DNA content of the cells in the wells were first determined before the TG-1 assay.
TG-1 levels of the cells in the wells were determined using the TG-1 specific monoclonal antibody (BC1) (first antibody) (obtained from Amersham Life Sciences) and using a peroxidase labelled rabbit antimouse IgG fragment (second antibody). The plates were blocked by 5% nonfat milk in TBS (Tris buffered saline, pH 8.0) for one hour followed by overnight incubation with the first antibody (1:2,000 fold dilution) in 1% milk/TBS at 4° C. After rinsing the plates three times with 1% milk/TBS containing 0.05% Tween 20, the plates were incubated with 1:4000 dilution of the second antibody at room temperature for two hours. The plates were rinsed three times with 1% milk/TBS/Tween and three times with TBS. Color was developed by incubation with o-phenylene diamine and hydrogen peroxide. The optical density was read at 410 nm in a microtiter plate reader and the TG-1 levels were calculated as OD/DNA fluorescence. The mean ±Standard Deviation of at least six separate wells were used for calculation and statistical analysis of the data. Results are expressed as % of control.
Cornified envelope formation is determined by the activity of transglutaminase enzyme which cross-links all the envelope precursor proteins to form the envelope. This enzyme is calcium dependent and is inhibited by calcium chelators such as citric acid and citric acid esters.

[3] = test system: human keratinocytes; experiment: 3H choline incorporation into phospholipids of keratinocytes; format: cell-based; conditions: Homo sapiens, Keratinocyte, 48 hours, * statistically significant effects, read-out: 3H choline incorporated into cellular phospholipids
Procedure: as §1
Choline acts as an essential nutrient for the cellular phospholipid biosynthesis of keratinocytes. Choline present in the medium is used up by the cells for phospholipid biosynthesis. If TCC provides choline for the cells it will complete with the choline in the medium for incorporation into cellular phospholipids. When cells are incubated with ^3 H-labelled choline, its incorporation into phospholipids will be decreased by the presence of unlabelled choline or TCC in the medium.
[…] The wells were washed, total lipids were extracted using Bleigh Dyer method as described above and the total counts in the chloroform phase was determined. To ascertain that the counts are present only in the phospholipid fraction, the amount of ^3 H choline incorporated into the different lipid fractions were quantitated by running TLC of the fractions in the above solvent system, and the amount of radioactivity in the phospholipid fraction (origin) was quantitated using BioScan plate reader. The cpm of ^3 H choline was plotted against the amount of cold choline or TCC added in the medium to assess the competition between choline supplied from TCC with ^3 H choline.
The amount of ^3 H choline incorporated into cellular phospholipids was determined and expressed as % of controls.

[4] = 1 mM, medium containing 0.15 mM Ca, ±SD, * statistically significant effects
[5] = 10 μM, * statistically significant
[6] = 100 μM, * statistically significant

Structure (SMILES): CCOC(=O)CC(O)(CC(=O)OCC)C(=O)OCC [TEC, triethylcitrate]
- activity at 1000 µM [1, 4]: 18.6 ± 4.2%
- transglutaminase I levels ([2]; 1 μM): 77.3 ± 10.7 % of control
- transglutaminase I levels [2, 5]: 76.7 ± 20.8 % of control
- transglutaminase I levels [2, 6]: 67.2 ± 11.9 % of control
- activity at 10 µM [3]: 114 ± 9.9%
- activity at 100 µM [3]: 89.2 ± 1.9%
- activity at 1000 µM [3]: 82.8 ± 22%

Structure (SMILES): C[N+](C)(C)CCO [Choline, choline]
- activity at 1000 µM [1]: 135 ± 23.6%
- transglutaminase I levels ([2]; 1 μM): 121.8 ± 18 % of control
- transglutaminase I levels [2, 5]: 124.2 ± 8.7 % of control
- transglutaminase I levels [2, 6]: 120.4 ± 11.3 % of control
- activity at 10 µM [3]: 61.6 ± 7.8%
- activity at 100 µM [3]: 36.9 ± 1.6%
- activity at 1000 µM [3]: 10.8 ± 5.5%

Structure (SMILES): CCCCOC(=O)CC(O)(CC(=O)OCCCC)C(=O)OCCCC [TBC, tributylcitrate]
- activity at 1000 µM [1, 4]: 23.6 ± 2.1%
- transglutaminase I levels ([2]; 1 μM): 100 ± 13 % of control
- transglutaminase I levels [2, 5]: 79 ± 13 % of control
- transglutaminase I levels [2, 6]: 79 ± 13 % of control
- activity at 10 µM [3]: 81.1 ± 7%
- activity at 100 µM [3]: 121 ± 6.7%
- activity at 1000 µM [3]: 81.1 ± 12%
